Results on one compound are retold here after patent EP2727911B1, “Novel means and methods for treating malaria and other parasitic disorders” (Medizinische Hochschule Hannover, priority 2012, dated 2014).

The structures appear in SMILES notation. Structures can show the parent of a compound that is named as a salt.

For the assay, the target named is T1, Dd myosin-1b (Dictyostelium discoideum, UniProt P34092).
T1 sequence (P34092 1-1111): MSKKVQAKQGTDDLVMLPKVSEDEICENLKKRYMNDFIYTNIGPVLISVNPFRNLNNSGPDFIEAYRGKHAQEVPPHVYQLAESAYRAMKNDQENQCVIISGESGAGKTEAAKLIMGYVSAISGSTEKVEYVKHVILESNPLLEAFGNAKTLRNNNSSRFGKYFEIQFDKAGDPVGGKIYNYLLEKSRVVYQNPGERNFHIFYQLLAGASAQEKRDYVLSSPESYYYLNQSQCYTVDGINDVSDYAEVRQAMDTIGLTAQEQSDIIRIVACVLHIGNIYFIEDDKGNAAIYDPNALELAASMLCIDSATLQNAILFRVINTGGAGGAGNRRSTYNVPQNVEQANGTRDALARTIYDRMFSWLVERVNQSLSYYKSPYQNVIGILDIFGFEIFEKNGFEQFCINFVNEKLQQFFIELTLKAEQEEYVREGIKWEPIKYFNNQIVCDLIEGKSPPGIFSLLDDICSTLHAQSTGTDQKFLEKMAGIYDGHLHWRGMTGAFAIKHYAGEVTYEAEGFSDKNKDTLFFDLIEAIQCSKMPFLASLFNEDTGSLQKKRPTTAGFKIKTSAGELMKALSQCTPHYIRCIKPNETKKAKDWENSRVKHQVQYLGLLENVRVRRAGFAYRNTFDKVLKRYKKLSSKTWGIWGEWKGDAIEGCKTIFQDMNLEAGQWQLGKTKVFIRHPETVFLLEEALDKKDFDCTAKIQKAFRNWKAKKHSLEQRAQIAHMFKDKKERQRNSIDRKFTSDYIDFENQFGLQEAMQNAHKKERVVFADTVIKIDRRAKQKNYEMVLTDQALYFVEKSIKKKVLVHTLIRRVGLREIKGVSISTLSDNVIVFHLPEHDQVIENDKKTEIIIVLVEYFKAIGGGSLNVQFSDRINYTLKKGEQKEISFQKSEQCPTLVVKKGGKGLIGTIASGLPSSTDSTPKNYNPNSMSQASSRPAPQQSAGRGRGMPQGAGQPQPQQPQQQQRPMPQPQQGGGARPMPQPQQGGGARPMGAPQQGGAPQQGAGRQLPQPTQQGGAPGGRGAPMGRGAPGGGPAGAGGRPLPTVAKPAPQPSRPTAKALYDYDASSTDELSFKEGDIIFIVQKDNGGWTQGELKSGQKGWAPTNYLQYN
The assay can be described thus: Actin-activated steady state ATPase assay (PK/LDH-coupled, photometric). In kind it is biochemical. The settings on record: in the presence of 30 µM F-actin, nonlinear regression. The protocol: In this assay, the ATPase activity of Dictyostelium discoideum myosin-1b is determined, preferably at a ligand concentration of 25µM. Furthermore, the IC50 concentration has been determined by measuring ATPase activity as a function of inhibitor concentration. Alternatively Dictyostelium discoideum myosin-2 can be used.
Actin-activated steady state ATPase experiments were performed following the absorbance change during NADH oxidation in a PK/LDH-coupled ATPase assay at 340 nm […] (Trentham (1972); Furch (1998)). The photometric steady state ATPase assay was applied to determine the potency of the small molecule compounds to inhibit the enzymatic activity of myosin. Dd myosin-1b was used as a model system for the target protein (Pf myosin A). All experiments were carried out in the presence of 30 µM F-actin and the corresponding half-maximal inhibitory concentrations (IC50) were determined by nonlinear regression.

On to `COC(=N)Cc1ccc(O)cc1` [BIP13, Methyl-2-(4-hydroxyphenyl)acetimidate·hydrochloride], for which the IC50 amounted to 8.07 ± 0.8 µM.
